Test results from the NIST ThermoML archive (doi:10.1007/s10765-011-1149-x).

Test: xn = mol fraction of the nth substance listed
Settings: 101 kPa, Liquid, Vibrating tube method

Cc1cc(C)nc(C)c1 [2,4,6-trimethylpyridine] + CO
Settings | mass density [kg/m3]
276.15 K, x1 = 0.0204 | 816.99
276.15 K, x1 = 0.0511 | 830.47
276.15 K, x1 = 0.0997 | 848.99
276.15 K, x1 = 0.194 | 875.69
276.15 K, x1 = 0.2957 | 895.63
276.15 K, x1 = 0.3884 | 907.79
276.15 K, x1 = 0.489 | 916.36
276.15 K, x1 = 0.5852 | 921.51
276.15 K, x1 = 0.6949 | 925.01
276.15 K, x1 = 0.7971 | 926.99
276.15 K, x1 = 0.8889 | 928.16
276.15 K, x1 = 1 | 928.45
277.15 K, x1 = 0.0204 | 816.06
277.15 K, x1 = 0.0511 | 829.54
277.15 K, x1 = 0.0997 | 848.07
277.15 K, x1 = 0.194 | 874.77
277.15 K, x1 = 0.2957 | 894.71
277.15 K, x1 = 0.3884 | 906.88
277.15 K, x1 = 0.489 | 915.47
277.15 K, x1 = 0.5852 | 920.64
277.15 K, x1 = 0.6949 | 924.15
277.15 K, x1 = 0.7971 | 926.14
277.15 K, x1 = 0.8889 | 927.31
277.15 K, x1 = 1 | 927.61
283.14 K, x1 = 0.2957 | 889.2
283.14 K, x1 = 0.3884 | 901.42
283.14 K, x1 = 0.5852 | 915.35
283.14 K, x1 = 0.7971 | 921.01
283.15 K, x1 = 0.0204 | 810.47
283.15 K, x1 = 0.0511 | 823.96
283.15 K, x1 = 0.0997 | 842.5
283.15 K, x1 = 0.194 | 869.23
283.15 K, x1 = 0.489 | 910.1
283.15 K, x1 = 0.6949 | 918.95
283.15 K, x1 = 0.8889 | 922.22
283.15 K, x1 = 1 | 922.54
288.15 K, x1 = 0.0204 | 805.79
288.15 K, x1 = 0.0511 | 819.3
288.15 K, x1 = 0.0997 | 837.86
288.15 K, x1 = 0.194 | 864.59
288.15 K, x1 = 0.2957 | 884.59
288.15 K, x1 = 0.3884 | 896.86
288.15 K, x1 = 0.489 | 905.6
288.15 K, x1 = 0.5852 | 910.93
288.15 K, x1 = 0.6949 | 914.61
288.15 K, x1 = 0.7971 | 916.72
288.15 K, x1 = 0.8889 | 917.96
288.15 K, x1 = 1 | 918.32
293.14 K, x1 = 0.0997 | 833.2
293.14 K, x1 = 1 | 914.08
293.15 K, x1 = 0.0204 | 801.11
293.15 K, x1 = 0.0511 | 814.63
293.15 K, x1 = 0.194 | 859.94
293.15 K, x1 = 0.2957 | 879.97
293.15 K, x1 = 0.3884 | 892.28
293.15 K, x1 = 0.489 | 901.1
293.15 K, x1 = 0.5852 | 906.5
293.15 K, x1 = 0.6949 | 910.25
293.15 K, x1 = 0.7971 | 912.41
293.15 K, x1 = 0.8889 | 913.69
298.14 K, x1 = 0.0511 | 809.94
298.14 K, x1 = 0.6949 | 905.88
298.14 K, x1 = 0.8889 | 909.41
298.15 K, x1 = 0.0204 | 796.41
298.15 K, x1 = 0.0997 | 828.52
298.15 K, x1 = 0.194 | 855.28
298.15 K, x1 = 0.2957 | 875.33
298.15 K, x1 = 0.3884 | 887.69
298.15 K, x1 = 0.489 | 896.57
298.15 K, x1 = 0.5852 | 902.05
298.15 K, x1 = 0.7971 | 908.1
298.15 K, x1 = 1 | 909.84
303.14 K, x1 = 0.7971 | 903.77
303.14 K, x1 = 0.8889 | 905.12
303.15 K, x1 = 0.0204 | 791.7
303.15 K, x1 = 0.0511 | 805.24
303.15 K, x1 = 0.0997 | 823.83
303.15 K, x1 = 0.194 | 850.6
303.15 K, x1 = 0.2957 | 870.67
303.15 K, x1 = 0.3884 | 883.08
303.15 K, x1 = 0.489 | 892.04
303.15 K, x1 = 0.5852 | 897.58
303.15 K, x1 = 0.6949 | 901.49
303.15 K, x1 = 1 | 905.58
308.14 K, x1 = 0.0997 | 819.11
308.14 K, x1 = 0.194 | 845.89
308.14 K, x1 = 0.3884 | 878.45
308.14 K, x1 = 0.489 | 887.48
308.14 K, x1 = 0.5852 | 893.1
308.14 K, x1 = 0.6949 | 897.08
308.14 K, x1 = 0.7971 | 899.42
308.15 K, x1 = 0.0204 | 786.96
308.15 K, x1 = 0.0511 | 800.51
308.15 K, x1 = 0.2957 | 865.99
308.15 K, x1 = 0.8889 | 900.82
308.15 K, x1 = 1 | 901.31
313.14 K, x1 = 0.0204 | 782.2
313.14 K, x1 = 0.0511 | 795.75
313.14 K, x1 = 0.0997 | 814.36
313.14 K, x1 = 0.489 | 882.9
313.14 K, x1 = 0.6949 | 892.65
313.15 K, x1 = 0.194 | 841.15
313.15 K, x1 = 0.2957 | 861.28
313.15 K, x1 = 0.3884 | 873.79
313.15 K, x1 = 0.5852 | 888.59
313.15 K, x1 = 0.7971 | 895.05
313.15 K, x1 = 0.8889 | 896.49
313.15 K, x1 = 1 | 897.03

Cc1cc(C)nc(C)c1 [2,4,6-trimethylpyridine] + OCCO
Settings | mass density [kg/m3]
276.15 K, x1 = 0.0227 | 1116.64
276.15 K, x1 = 0.0509 | 1106.81
276.15 K, x1 = 0.1024 | 1090.72
276.15 K, x1 = 0.1996 | 1065.35
276.15 K, x1 = 0.2983 | 1043.61
276.15 K, x1 = 0.4014 | 1024.29
276.15 K, x1 = 0.4958 | 1008.47
276.15 K, x1 = 0.5984 | 991.05
276.15 K, x1 = 0.6974 | 975.68
276.15 K, x1 = 0.7927 | 959.81
276.15 K, x1 = 0.8896 | 944.84
277.15 K, x1 = 0.0227 | 1115.94
277.15 K, x1 = 0.0509 | 1106.1
277.15 K, x1 = 0.1996 | 1064.61
277.15 K, x1 = 0.2983 | 1042.81
277.15 K, x1 = 0.4014 | 1023.47
277.15 K, x1 = 0.4958 | 1007.63
277.15 K, x1 = 0.5984 | 990.18
277.15 K, x1 = 0.6974 | 974.81
277.15 K, x1 = 0.7927 | 958.95
277.15 K, x1 = 0.8896 | 944
277.16 K, x1 = 0.1024 | 1090
283.15 K, x1 = 0.0227 | 1111.72
283.15 K, x1 = 0.0509 | 1101.82
283.15 K, x1 = 0.1996 | 1060.1
283.15 K, x1 = 0.2983 | 1038.02
283.15 K, x1 = 0.4014 | 1018.5
283.15 K, x1 = 0.5984 | 985
283.15 K, x1 = 0.7927 | 953.81
283.15 K, x1 = 0.8896 | 938.89
283.16 K, x1 = 0.1024 | 1085.61
283.16 K, x1 = 0.4958 | 1002.53
283.16 K, x1 = 0.6974 | 969.63
288.15 K, x1 = 0.0227 | 1108.21
288.15 K, x1 = 0.0509 | 1098.26
288.15 K, x1 = 0.1024 | 1081.94
288.15 K, x1 = 0.1996 | 1056.23
288.15 K, x1 = 0.2983 | 1034.02
288.15 K, x1 = 0.4014 | 1014.34
288.15 K, x1 = 0.4958 | 998.27
288.15 K, x1 = 0.5984 | 980.68
288.15 K, x1 = 0.6974 | 965.31
288.15 K, x1 = 0.7927 | 949.52
288.15 K, x1 = 0.8896 | 934.64
293.14 K, x1 = 0.1024 | 1078.26
293.15 K, x1 = 0.0227 | 1104.68
293.15 K, x1 = 0.0509 | 1094.67
293.15 K, x1 = 0.1996 | 1052.33
293.15 K, x1 = 0.2983 | 1029.98
293.15 K, x1 = 0.4014 | 1010.15
293.15 K, x1 = 0.4958 | 993.97
293.15 K, x1 = 0.5984 | 976.33
293.15 K, x1 = 0.6974 | 960.96
293.15 K, x1 = 0.7927 | 945.2
293.15 K, x1 = 0.8896 | 930.36
298.14 K, x1 = 0.0227 | 1101.13
298.14 K, x1 = 0.0509 | 1091.07
298.14 K, x1 = 0.1024 | 1074.55
298.14 K, x1 = 0.2983 | 1025.93
298.14 K, x1 = 0.4958 | 989.66
298.14 K, x1 = 0.8896 | 926.07
298.15 K, x1 = 0.1996 | 1048.43
298.15 K, x1 = 0.4014 | 1005.94
298.15 K, x1 = 0.5984 | 971.96
298.15 K, x1 = 0.6974 | 956.59
298.15 K, x1 = 0.7927 | 940.86
303.15 K, x1 = 0.0227 | 1097.58
303.15 K, x1 = 0.0509 | 1087.45
303.15 K, x1 = 0.1024 | 1070.84
303.15 K, x1 = 0.1996 | 1044.52
303.15 K, x1 = 0.2983 | 1021.84
303.15 K, x1 = 0.4014 | 1001.71
303.15 K, x1 = 0.4958 | 985.33
303.15 K, x1 = 0.5984 | 967.57
303.15 K, x1 = 0.6974 | 952.2
303.15 K, x1 = 0.7927 | 936.51
303.15 K, x1 = 0.8896 | 921.76
308.14 K, x1 = 0.4014 | 997.46
308.14 K, x1 = 0.5984 | 963.16
308.15 K, x1 = 0.0227 | 1094.01
308.15 K, x1 = 0.0509 | 1083.83
308.15 K, x1 = 0.1024 | 1067.1
308.15 K, x1 = 0.1996 | 1040.64
308.15 K, x1 = 0.2983 | 1017.74
308.15 K, x1 = 0.4958 | 980.98
308.15 K, x1 = 0.6974 | 947.78
308.15 K, x1 = 0.7927 | 932.13
308.15 K, x1 = 0.8896 | 917.43
313.14 K, x1 = 0.1024 | 1063.34
313.14 K, x1 = 0.1996 | 1036.74
313.14 K, x1 = 0.2983 | 1013.62
313.14 K, x1 = 0.4014 | 993.19
313.14 K, x1 = 0.4958 | 976.61
313.14 K, x1 = 0.5984 | 958.73
313.15 K, x1 = 0.0227 | 1090.43
313.15 K, x1 = 0.0509 | 1080.18
313.15 K, x1 = 0.6974 | 943.35
313.15 K, x1 = 0.7927 | 927.74
313.15 K, x1 = 0.8896 | 913.09
